# From patent publication US8771644B2, “Imaging probes” (Sanofi, priority 2007, dated 2014)
# Target: Cath X (Homo sapiens, UniProt Q9UBR2)
# Experiment: in vitro activity assay (fluorescence, substrate cleavage) with Cath X
# Format: biochemical
# Details: measurement performed at pH 5.5
# Protocol: […] The substrates were solved in DMSO and added to enzyme solution with a final concentration of 50 μM.
# Fluorescence was measured with an Tecan SAFIRE II spectrometer (excitation wavelength: 336 nm; emission wavelength: 490 nm; excitation band: 10.0 nm; emission band: 10.0 nm; amplification (manual): 90).
# Chain of Cath X (Q9UBR2 62-303): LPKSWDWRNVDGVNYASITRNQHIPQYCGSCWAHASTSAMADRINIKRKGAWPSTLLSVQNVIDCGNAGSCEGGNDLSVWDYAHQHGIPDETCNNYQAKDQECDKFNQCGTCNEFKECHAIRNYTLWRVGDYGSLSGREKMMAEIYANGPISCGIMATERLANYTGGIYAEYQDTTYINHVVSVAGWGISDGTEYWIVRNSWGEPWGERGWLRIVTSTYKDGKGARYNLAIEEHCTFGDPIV
compound,measurement,value
CN(C)c1ccc2c(c1)Oc1cc(N(C)C)ccc1C21OC(=O)c2cc(C(=O)NCC[C@H](NC(=O)[C@H](CC3CCCCC3)NC(=O)N3CCOCC3)C(=O)NCCNC(=O)c3ccc(-c4c5ccc(=O)cc-5oc5cc(O)ccc45)c(C(=O)O)c3)ccc21 [Example 10],Kcat,287.4 s⁻¹
same,Vmax,7997 nmol/s
